Reference: ChEMBL document CHEMBL1201862, “PubChem BioAssay data set” (2004)
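Where inhibition never reached the appropriate level, the endpoint shown equals the highest concentration tested. Otherwise, values were interpolated linearly from a five-concentration, 48-hour dose response in 96-well plates. GI50 is the concentration that inhibits growth by half.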 The source made the active and inactive calls. Rule as the data show it: active = GI50 up to about 1.1 µM and inactive = higher.

What was measured:
Test in all cases: growth of human tumour cells (NCI), 48 h
[1] = test system: Hs-578T
[2] = test system: MCF7
[3] = test system: SK-MEL-5
[4] = test system: SR
[5] = test system: HCC 2998
[6] = test system: SK-MEL-2
[7] = test system: NCI-H226
[8] = test system: KM12
[9] = test system: BT-549
[10] = test system: RXF 393
[11] = test system: OVCAR-3
[12] = test system: NCI-H23
[13] = test system: OVCAR-5
[14] = test system: HL-60
[15] = test system: A549
[16] = test system: HCT-116
[17] = test system: U-251
[18] = test system: OVCAR-4
[19] = test system: T47D
[20] = test system: SK-MEL-28
[21] = test system: DU-145
[22] = test system: OVCAR-8
[23] = test system: IGROV-1
[24] = test system: ACHN
[25] = test system: SF-295
[26] = test system: NCI-H460
[27] = test system: COLO 205
[28] = test system: EKVX
[29] = test system: SK-OV-3
[30] = test system: MDA-N
[31] = test system: PC-3
[32] = test system: HOP-92
[33] = test system: UO-31
[34] = test system: A498
[35] = test system: NCI-H522
[36] = test system: Malme-3M
[37] = test system: UACC-257
[38] = test system: CCRF-CEM
[39] = test system: SN12C
[40] = test system: 786-0
[41] = test system: NCI/ADR-RES
[42] = test system: SF-268
[43] = test system: SW-620
[44] = test system: TK-10
[45] = test system: SNB-75
[46] = test system: SF-539
[47] = test system: MDA-MB-231
[48] = test system: RPMI-8226
[49] = test system: MOLT-4
[50] = test system: MDA-MB-435
[51] = test system: K562
[52] = test system: HOP-62
[53] = test system: HCT-15
[54] = test system: LOX IMVI
[55] = test system: UACC-62
[56] = test system: CAKI-1
[57] = test system: HT-29

Measured: GI50

CCOP(=O)(CCCC(O)CNc1cc(Cl)nc(N)n1)OCC (configuration not stated)
inactive: [1] > 100 µM | [2] > 100 µM | [3] > 100 µM | [4] > 100 µM | [5] > 100 µM | [6] > 100 µM | [7] > 100 µM | [8] > 100 µM | [9] > 100 µM | [10] > 100 µM | [11] > 100 µM | [12] > 100 µM | [13] > 100 µM | [14] > 100 µM | [15] > 100 µM | [16] > 100 µM | [17] > 100 µM | [18] > 100 µM | [19] > 100 µM | [20] > 100 µM | [21] > 100 µM | [22] > 100 µM | [23] > 100 µM | [24] > 100 µM | [25] > 100 µM | [26] > 100 µM | [27] > 100 µM | [28] > 100 µM | [29] > 100 µM | [30] > 100 µM | [31] > 100 µM | [32] > 100 µM | [33] > 100 µM | [34] > 100 µM | [35] > 100 µM | [36] > 100 µM | [37] > 100 µM | [38] > 100 µM | [39] > 100 µM | [40] > 100 µM | [41] > 100 µM | [42] > 100 µM | [43] > 100 µM | [44] > 100 µM | [45] > 100 µM | [46] > 100 µM | [47] > 100 µM | [48] > 100 µM | [49] > 100 µM | [50] > 100 µM | [51] > 100 µM | [52] > 100 µM | [54] > 100 µM | [55] > 100 µM | [56] > 100 µM | [57] > 100 µM
> 100 µM: [53]
